In ChEMBL document CHEMBL4177728, “Protective effects of 6-ureido/thioureido-2,4,5-trimethylpyridin-3-ols against 4-hydroxynonenal-induced cell death in adult retinal pigment epithelial-19 cells” (2018):

Legend:
[1] = tested on: ARPE-19; experiment: Suppression of 4-HNE-induced apoptosis in human ARPE19 cells assessed as late apoptosis cells level at 20 uM incubated for 24 hrs by FITC Annexin V and propidium iodide staining based flow cytometry (reference value: 23%); assay type: functional
[2] = tested on: ARPE-19; experiment: Suppression of 4-HNE-induced apoptosis in human ARPE19 cells assessed as late apoptosis cells level at 10 uM incubated for 24 hrs by FITC Annexin V and propidium iodide staining based flow cytometry (reference value: 23%); assay type: functional
[3] = tested on: ARPE-19; experiment: Suppression of 4-HNE-induced apoptosis in human ARPE19 cells assessed as viable cells level at 5 uM incubated for 24 hrs by FITC Annexin V and propidium iodide staining based flow cytometry (reference value: 59.1%); assay type: functional
[4] = target: T1, NADPH oxidase 4 (Homo sapiens) (UniProt Q9NPH5); experiment: (§1) Inhibition of NOX4 in human ARPE19 cells assessed as suppression of 4-HNE-induced superoxide production at 10 uM pre-incubated for 1 hr before 4-HNE addition for 1 hr by lucigenin chemiluminescence assay; assay type: cell-based
T1 sequence (whole entry): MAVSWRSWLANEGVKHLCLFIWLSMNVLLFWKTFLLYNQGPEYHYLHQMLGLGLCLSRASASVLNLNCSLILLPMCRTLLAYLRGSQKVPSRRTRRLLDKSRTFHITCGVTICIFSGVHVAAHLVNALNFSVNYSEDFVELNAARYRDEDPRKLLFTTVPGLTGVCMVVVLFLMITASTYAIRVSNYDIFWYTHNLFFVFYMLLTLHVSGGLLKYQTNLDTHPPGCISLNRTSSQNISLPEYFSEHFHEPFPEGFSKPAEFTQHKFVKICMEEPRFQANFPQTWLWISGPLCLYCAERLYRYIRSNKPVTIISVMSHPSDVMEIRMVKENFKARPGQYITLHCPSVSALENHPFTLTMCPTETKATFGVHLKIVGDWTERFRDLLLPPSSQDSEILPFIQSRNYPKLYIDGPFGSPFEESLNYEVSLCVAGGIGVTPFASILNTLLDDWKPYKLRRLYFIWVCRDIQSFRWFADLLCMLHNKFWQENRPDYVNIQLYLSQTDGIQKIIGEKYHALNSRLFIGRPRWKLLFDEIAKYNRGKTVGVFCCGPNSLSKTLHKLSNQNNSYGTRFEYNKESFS

[5] = tested on: ARPE-19; experiment: Suppression of 4-HNE-induced apoptosis in human ARPE19 cells assessed as early apoptosis cells level at 20 uM incubated for 24 hrs by FITC Annexin V and propidium iodide staining based flow cytometry (reference value: 17.6%); assay type: functional
[6] = tested on: ARPE-19; experiment: Suppression of 4-HNE-induced apoptosis in human ARPE19 cells assessed as early apoptosis cells level at 5 uM incubated for 24 hrs by FITC Annexin V and propidium iodide staining based flow cytometry (reference value: 17.6%); assay type: functional
[7] = target: T1, NADPH oxidase 4 (Homo sapiens); experiment: Inhibition of NOX4 in human ARPE19 cells assessed as protection against 4-HNE-induced cell death by measuring cell viability recovery incubated for 24 hrs by MTT assay; assay type: cell-based
[8] = tested on: ARPE-19; experiment: Suppression of 4-HNE-induced apoptosis in human ARPE19 cells assessed as late apoptosis cells level at 5 uM incubated for 24 hrs by FITC Annexin V and propidium iodide staining based flow cytometry (reference value: 23%); assay type: functional
[9] = tested on: ARPE-19; experiment: Suppression of 4-HNE-induced apoptosis in human ARPE19 cells assessed as viable cells level at 10 uM incubated for 24 hrs by FITC Annexin V and propidium iodide staining based flow cytometry (reference value: 59.1%); assay type: functional
[10] = tested on: ARPE-19; experiment: Suppression of 4-HNE-induced apoptosis in human ARPE19 cells assessed as necrosis cells level at 10 uM incubated for 24 hrs by FITC Annexin V and propidium iodide staining based flow cytometry (reference value: 0.342%); assay type: functional
[11] = tested on: ARPE-19; experiment: Suppression of 4-HNE-induced apoptosis in human ARPE19 cells assessed as viable cells level at 20 uM incubated for 24 hrs by FITC Annexin V and propidium iodide staining based flow cytometry (reference value: 59.1%); assay type: functional
[12] = tested on: ARPE-19; experiment: Suppression of 4-HNE-induced apoptosis in human ARPE19 cells assessed as necrosis cells level at 20 uM incubated for 24 hrs by FITC Annexin V and propidium iodide staining based flow cytometry (reference value: 0.342%); assay type: functional
[13] = Antioxidant activity assessed as DPPH radical scavenging activity at 10 uM by spectrphotomery; assay type: functional
[14] = tested on: ARPE-19; experiment: Suppression of 4-HNE-induced apoptosis in human ARPE19 cells assessed as necrosis cells level at 5 uM incubated for 24 hrs by FITC Annexin V and propidium iodide staining based flow cytometry (reference value: 0.342%); assay type: functional
[15] = tested on: ARPE-19; experiment: Suppression of 4-HNE-induced apoptosis in human ARPE19 cells assessed as early apoptosis cells level at 10 uM incubated for 24 hrs by FITC Annexin V and propidium iodide staining based flow cytometry (reference value: 17.6%); assay type: functional
[16] = target: T1, NADPH oxidase 4 (Homo sapiens); experiment: (§2) Inhibition of NOX4 in human ARPE19 cells assessed as protection against 4-HNE-induced cell death by measuring cell viability recovery at 10 uM incubated for 24 hrs by MTT assay; assay type: cell-based
[17] = target: NADPH oxidase 4 (Homo sapiens) (UniProt Q9NPH5); experiment: as §1; assay type: cell-based; remark: listed apart in the source
[18] = target: NADPH oxidase 4 (Homo sapiens) (UniProt Q9NPH5); experiment: as §2; assay type: cell-based; remark: listed apart in the source

Row | Molecule | inhibition [4] | Activity [13] | Activity [16] | also measured
1 | CCCCNC(=S)Nc1nc(C)c(O)c(C)c1C | 79.5% | 5.9% | 85.1% | Activity [1]: 0.079%; Activity [2]: 3.38%; Activity [3]: 88.6%; Activity [5]: 0.112%; Activity [6]: 6.84%; inhibition [7]: Dose-dependent effect; Activity [8]: 4.24%; Activity [9]: 93.4%; Activity [10]: 0.134%; Activity [11]: 99.7%; Activity [12]: 0.067%; Activity [14]: 0.335%; Activity [15]: 3.06%
2 | Cc1nc(NC(=S)Nc2cccc(C(F)(F)F)c2)c(C)c(C)c1O | 20.1% | 7.6% | 29.6% | –
3 | COc1ccc(NC(=S)Nc2nc(C)c(O)c(C)c2C)cc1 | 17.7% | 4.7% | 23.2% | –
4 | Cc1nc(NC(=O)Nc2ccc(Cl)cc2)c(C)c(C)c1O | 30.8% | 6.2% | 43.6% | –
5 | Cc1cccc(C(C)(C)C)c1NC(=O)Nc1nc(C)c(O)c(C)c1C | 8.9% | 3.3% | 12.8% | –
6 | Cc1nc(NC(=O)Nc2cccc3ccccc23)c(C)c(C)c1O | 2.4% | 6.3% | 7.3% | –
7 | CCCCCCCCNC(=S)Nc1nc(C)c(O)c(C)c1C | 40.7% | 14.6% | 45.9% | –
8 | CCNC(=S)Nc1nc(C)c(O)c(C)c1C | 36.7% | 13.3% | 44.9% | –
9 | Cc1ccc(S(=O)(=O)NC(=O)Nc2nc(C)c(O)c(C)c2C)cc1 | 28.6% | 5.7% | 32.5% | –
10 | COc1ccc(NC(=O)Nc2nc(C)c(O)c(C)c2C)cc1 | 5.8% | 7.4% | 10.8% | –
11 | Cc1nc(NC(=S)Nc2ccccc2)c(C)c(C)c1O | 2.3% | 5.6% | 8.9% | –
12 | Cc1nc(NC(=O)Nc2ccc([N+](=O)[O-])cc2)c(C)c(C)c1O | 8.3% | 5.2% | 13.9% | –
13 | Cc1nc(NC(=O)Nc2ccc(F)cc2)c(C)c(C)c1O | 6.9% | 7.4% | 6.2% | –
14 | Cc1nc(NC(=S)Nc2ccc(C(F)(F)F)cc2)c(C)c(C)c1O | 30.5% | 6.7% | 40.4% | –
15 | O=C1O[C@H]([C@@H](O)CO)C(O)=C1O | 3.4% | 10.2% | 8.2% | –
16 | Cc1ccc(NC(=O)Nc2nc(C)c(O)c(C)c2C)cc1 | 6.2% | 3.4% | 5.3% | –
17 | Cc1nc(NC(=O)Nc2ccccc2)c(C)c(C)c1O | 7.1% | 5.8% | 8.9% | –
18 | Cc1nc(NC(=S)NC(=O)c2ccccc2)c(C)c(C)c1O | 68.7% | 4.9% | 63.1% | –

Row | Molecule | inhibition [4] | Activity [13] | Activity [16] | also measured
19 | Cc1nc(NC(=O)Nc2ccc(Br)cc2)c(C)c(C)c1O | 0.9% | 4% | 7.3% | –
20 | Cc1nc(NC(=S)NC(C)C)c(C)c(C)c1O | 13.9% | 5.5% | 14.7% | –
21 | Cc1nc(NC(=S)Nc2ccc([N+](=O)[O-])cc2)c(C)c(C)c1O | 71.8% | 5.5% | 77.7% | inhibition [7]: Dose-dependent effect
22 | Cc1nc(NC(=S)Nc2ccc(Cl)c(Cl)c2)c(C)c(C)c1O | 19% | 6.6% | 24.9% | –
23 | VITAMIN E | – | 10.2% | – | inhibition [17]: 3.9%; Activity [18]: 9.8%
24 | CCCNC(=O)Nc1nc(C)c(O)c(C)c1C | 9.4% | 5.5% | 12.5% | –
25 | Cc1nc(NC(=S)Nc2ccc(Cl)cc2)c(C)c(C)c1O | 13% | 6.5% | 12.8% | –
26 | c1ccc(Cn2nnc3c(Sc4nc5ccccc5o4)ncnc32)cc1 | 78.7% | 6.9% | 79.4% | Activity [1]: 1.81%; Activity [2]: 4.42%; Activity [3]: 80.4%; Activity [5]: 2.87%; Activity [6]: 11.8%; Activity [8]: 7.66%; Activity [9]: 89.8%; Activity [10]: 0.254%; Activity [11]: 95.2%; Activity [12]: 0.145%; Activity [14]: 0.25%; Activity [15]: 5.62%
27 | Cc1nc(NC(=O)NC(=O)c2ccccc2)c(C)c(C)c1O | 8.8% | 6.7% | 1.5% | –
28 | Cc1ccc(NC(=S)Nc2nc(C)c(O)c(C)c2C)cc1 | 41.3% | 6.9% | 54% | –
29 | Cc1nc(NC(=O)Nc2ccc(C(F)(F)F)cc2)c(C)c(C)c1O | 41.3% | 5.9% | 44.2% | –
30 | Cc1nc(NC(=S)NC2CCCCC2)c(C)c(C)c1O | 61.9% | 7.1% | 62.2% | –
31 | CCCCCCNC(=S)Nc1nc(C)c(O)c(C)c1C | 17.9% | 16.5% | 22.8% | –
32 | Cc1nc(NC(=O)Nc2ccc(C(C)C)cc2)c(C)c(C)c1O | -1.3% | 4.2% | -5.1% | –
33 | Cc1nc(NC(=S)Nc2ccc(Br)cc2)c(C)c(C)c1O | 22.8% | 7.4% | 33.5% | –
34 | Cc1nc(NC(=O)NCc2ccccc2)c(C)c(C)c1O | 4.6% | 6% | 10.5% | –
35 | Cc1nc(NC(=O)Nc2ccc(OC(F)(F)F)cc2)c(C)c(C)c1O | 51.1% | 6.1% | 58.4% | –
